In ChEMBL document CHEMBL5385899, “Design, synthesis, spectroscopic characterization, single crystal X-ray analysis, in vitro α-amylase inhibition assay, DPPH free radical evaluation and computational studies of naphtho[2,3-d]imidazole-4,9-dione appended 1,2,3-triazoles” (Eur J Med Chem, 2023):
≈ marks a conversion by molar mass, not a printed value.

What was measured:
[1] = molecular target: T1, Alpha amylase (Homo sapiens, UniProt P0DUB6); assay: Inhibition of alpha amylase (unknown origin) using starch as substrate preincubated for 30 mins followed by substrate addition and measured after 30 mins by absorbance based analysis
T1 sequence (P0DUB6 whole entry): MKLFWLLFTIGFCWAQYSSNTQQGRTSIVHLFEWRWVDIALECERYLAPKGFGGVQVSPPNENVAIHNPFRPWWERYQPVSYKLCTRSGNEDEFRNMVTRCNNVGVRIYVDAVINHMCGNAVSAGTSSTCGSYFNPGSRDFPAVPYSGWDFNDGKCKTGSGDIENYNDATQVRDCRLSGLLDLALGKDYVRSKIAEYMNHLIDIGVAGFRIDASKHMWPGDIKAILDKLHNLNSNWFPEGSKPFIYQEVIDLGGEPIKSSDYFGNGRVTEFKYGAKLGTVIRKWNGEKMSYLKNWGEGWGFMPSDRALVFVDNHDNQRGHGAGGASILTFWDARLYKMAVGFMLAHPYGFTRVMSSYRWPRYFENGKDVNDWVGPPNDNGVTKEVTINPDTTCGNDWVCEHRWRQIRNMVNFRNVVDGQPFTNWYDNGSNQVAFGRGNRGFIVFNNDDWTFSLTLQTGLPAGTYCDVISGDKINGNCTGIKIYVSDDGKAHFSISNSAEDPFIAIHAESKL

[2] = Antioxidant activity assessed as DPPH radical scavenging activity incubated for 30 mins under dark condition; format: functional

Row | SMILES | IC50 [1] | IC50 [2]
1 | COc1ccc(-n2cc(Cn3c(-c4ccc(F)cc4)nc4c3C(=O)c3ccccc3C4=O)nn2)cc1 | 19.87 µg/mL (≈ 41.4 µM) | 10.84 µg/mL (≈ 22.6 µM)
2 | COc1ccc(-c2nc3c(n2Cc2cn(-c4ccccc4)nn2)C(=O)c2ccccc2C3=O)c(OC)c1 | 25.44 µg/mL (≈ 51.8 µM) | 11.09 µg/mL (≈ 22.6 µM)
3 | CCCCn1cc(Cn2c(-c3ccc(F)cc3)nc3c2C(=O)c2ccccc2C3=O)nn1 | 19.72 µg/mL (≈ 45.9 µM) | 9.41 µg/mL (≈ 21.9 µM)
4 | COc1cccc(-c2nc3c(n2Cc2cn(-c4ccccc4)nn2)C(=O)c2ccccc2C3=O)c1 | 25.07 µg/mL (≈ 54.3 µM) | 10.05 µg/mL (≈ 21.8 µM)
5 | CCCCn1cc(Cn2c(-c3ccc(OC)cc3OC)nc3c2C(=O)c2ccccc2C3=O)nn1 | 20.64 µg/mL (≈ 43.8 µM) | 10.26 µg/mL (≈ 21.8 µM)
6 | O=C1c2ccccc2C(=O)c2c1nc(-c1ccc(F)cc1)n2Cc1cn(-c2ccc(F)cc2)nn1 | 22.04 µg/mL (≈ 47.2 µM) | 9.57 µg/mL (≈ 20.5 µM)
7 | COc1ccc(-c2nc3c(n2Cc2cn(-c4ccc(F)cc4)nn2)C(=O)c2ccccc2C3=O)c(OC)c1 | 23.81 µg/mL (≈ 46.7 µM) | 9.92 µg/mL (≈ 19.5 µM)
8 | COc1ccc(-c2nc3c(n2Cc2cn(-c4ccc([N+](=O)[O-])cc4)nn2)C(=O)c2ccccc2C3=O)c(OC)c1OC | 18.11 µg/mL (≈ 32 µM) | 10.1 µg/mL (≈ 17.8 µM)
9 | COc1cccc(-c2nc3c(n2Cc2cn(-c4ccc(F)cc4)nn2)C(=O)c2ccccc2C3=O)c1 | 18.41 µg/mL (≈ 38.4 µM) | 9.3 µg/mL (≈ 19.4 µM)
10 | COc1ccc(-c2nc3c(n2Cc2cn(-c4ccccc4)nn2)C(=O)c2ccccc2C3=O)cc1 | 20.73 µg/mL (≈ 44.9 µM) | 10.15 µg/mL (≈ 22 µM)
11 | COc1ccc(-c2nc3c(n2Cc2cn(-c4ccc(C)cc4)nn2)C(=O)c2ccccc2C3=O)c(OC)c1 | 21.71 µg/mL (≈ 42.9 µM) | 11.19 µg/mL (≈ 22.1 µM)
12 | COc1ccc(-c2nc3c(n2Cc2cn(-c4ccccc4)nn2)C(=O)c2ccccc2C3=O)c(OC)c1OC | 18.51 µg/mL (≈ 35.5 µM) | 9.63 µg/mL (≈ 18.5 µM)
13 | COc1ccc(-n2cc(Cn3c(-c4cccc(OC)c4)nc4c3C(=O)c3ccccc3C4=O)nn2)cc1 | 22.73 µg/mL (≈ 46.2 µM) | 9.8 µg/mL (≈ 19.9 µM)
14 | COc1cccc(-c2nc3c(n2Cc2cn(-c4ccc(C)cc4)nn2)C(=O)c2ccccc2C3=O)c1 | 18.42 µg/mL (≈ 38.7 µM) | 9.5 µg/mL (≈ 20 µM)
15 | COc1ccc(-n2cc(Cn3c(-c4ccc(OC)cc4OC)nc4c3C(=O)c3ccccc3C4=O)nn2)cc1 | 19.3 µg/mL (≈ 37 µM) | 10.65 µg/mL (≈ 20.4 µM)
16 | COc1ccc(-n2cc(Cn3c(-c4ccc(OC)c(OC)c4OC)nc4c3C(=O)c3ccccc3C4=O)nn2)cc1 | 17.83 µg/mL (≈ 32.3 µM) | 8.99 µg/mL (≈ 16.3 µM)

Row | SMILES | IC50 [1] | IC50 [2]
17 | COc1ccc(-c2nc3c(n2Cc2cn(-c4ccc([N+](=O)[O-])cc4)nn2)C(=O)c2ccccc2C3=O)cc1 | 18.62 µg/mL (≈ 36.8 µM) | 10.88 µg/mL (≈ 21.5 µM)
18 | COc1ccc(-c2nc3c(n2Cc2cn(-c4ccc(OC)cc4)nn2)C(=O)c2ccccc2C3=O)cc1 | 25.49 µg/mL (≈ 51.9 µM) | 9.55 µg/mL (≈ 19.4 µM)
19 | CCCCn1cc(Cn2c(-c3cccc(OC)c3)nc3c2C(=O)c2ccccc2C3=O)nn1 | 21.11 µg/mL (≈ 47.8 µM) | 9.82 µg/mL (≈ 22.2 µM)
20 | COc1ccc(-c2nc3c(n2Cc2cn(-c4ccc([N+](=O)[O-])cc4)nn2)C(=O)c2ccccc2C3=O)c(OC)c1 | 20.24 µg/mL (≈ 37.7 µM) | 10.07 µg/mL (≈ 18.8 µM)
21 | COc1ccc(-c2nc3c(n2Cc2cn(-c4ccc(C)cc4)nn2)C(=O)c2ccccc2C3=O)cc1 | 24.58 µg/mL (≈ 51.7 µM) | 10.14 µg/mL (≈ 21.3 µM)
22 | CCCCn1cc(Cn2c(-c3ccc(OC)cc3)nc3c2C(=O)c2ccccc2C3=O)nn1 | 24.25 µg/mL (≈ 54.9 µM) | 10.76 µg/mL (≈ 24.4 µM)
23 | COc1ccc(-c2nc3c(n2Cc2cn(-c4ccc(F)cc4)nn2)C(=O)c2ccccc2C3=O)c(OC)c1OC | 23.94 µg/mL (≈ 44.4 µM) | 10.41 µg/mL (≈ 19.3 µM)
24 | COc1ccc(-c2nc3c(n2Cc2cn(-c4ccc(F)cc4)nn2)C(=O)c2ccccc2C3=O)cc1 | 24.19 µg/mL (≈ 50.5 µM) | 10.58 µg/mL (≈ 22.1 µM)
25 | O=C1c2ccccc2C(=O)c2c1nc(-c1ccc(F)cc1)n2Cc1cn(-c2ccccc2)nn1 | 26.01 µg/mL (≈ 57.9 µM) | 10.32 µg/mL (≈ 23 µM)
26 | CCCCn1cc(Cn2c(-c3ccc(OC)c(OC)c3OC)nc3c2C(=O)c2ccccc2C3=O)nn1 | 23.49 µg/mL (≈ 46.8 µM) | 9.23 µg/mL (≈ 18.4 µM)
27 | COc1ccc(-c2nc3c(n2Cc2cn(-c4ccc(C)cc4)nn2)C(=O)c2ccccc2C3=O)c(OC)c1OC | 22.87 µg/mL (≈ 42.7 µM) | 10.19 µg/mL (≈ 19 µM)
28 | COc1cccc(-c2nc3c(n2Cc2cn(-c4ccc([N+](=O)[O-])cc4)nn2)C(=O)c2ccccc2C3=O)c1 | 21.18 µg/mL (≈ 41.8 µM) | 9.2 µg/mL (≈ 18.2 µM)
29 | Cc1ccc(-n2cc(Cn3c(-c4ccc(F)cc4)nc4c3C(=O)c3ccccc3C4=O)nn2)cc1 | 24.08 µg/mL (≈ 52 µM) | 9.61 µg/mL (≈ 20.7 µM)
30 | O=C1c2ccccc2C(=O)c2c1nc(-c1ccc(F)cc1)n2Cc1cn(-c2ccc([N+](=O)[O-])cc2)nn1 | 18.63 µg/mL (≈ 37.7 µM) | 9.69 µg/mL (≈ 19.6 µM)
31 | Cc1cc(C(C)(C)C)c(O)c(C(C)(C)C)c1 [BUTYLATED HYDROXYTOLUENE] |  | 9.41 µg/mL (≈ 42.7 µM)
